The source of these data is patent publication US11679107B2 (Eisai R&D Management Co., Ltd., priority 2018, dated 2023).

Test [1] relates to Ad2 variant pre-mRNAs spliced in HeLa S3 nuclear extracts. Put plainly: In vitro splicing assay (IVS), RT-qPCR of spliced product. The following applies: for IC50: geometric mean; for Ratio Ad2.1/2.2: ratio of IVS IC50 Ad2.1 to Ad2.2. It counts as biochemical. The protocol: (§1) Batch immobilization of anti-SF3B1 antibody (MBL) to anti-mouse PVT SPA scintillation beads (PerkinElmer) was prepared as follows: for every 2.5 mg of nuclear extracts, 5 μg anti-SF3B1 antibody and 1.5 mg of beads were mixed in 150 μl PBS. The antibody-bead mixture was incubated for 30 min at RT and centrifuged at 18,000 g for 5 min. 150 μl PBS was used to resuspend every 1.5 mg antibody-bead mixture. The beads were suspended and added to the prepared nuclear extracts. The slurry was incubated for 2 h at 4° C. with gentle mixing. The beads were then collected by centrifuging at 18,000 g for 5 min, and washed twice with PBS+0.1% Triton X-100. After a final centrifugation step, every 1.5 mg of beads was suspended with 150 μl of PBS. The SF3b complexes were tested for [^3H]-labelled pladienolide probe binding ([^3H]—PB), synthesized as previously described (Kotake et al., 2007). 100 μl binding reactions were prepared with 50 μl bead slurry and by adding varying concentrations of PB or PB—OH, and after 30 min pre-incubation, 2.5 nM [^3H]—PB was added. The mixture was incubated for 30 min, and luminescence signals were read using a MicroBeta2 Plate Counter (PerkinElmer). Prism 6 (Graphpad) was used for non-linear regression curve fitting of the data. • a. • b. HeLa nuclear extract preparation (for in vitro splicing modulation assay below) • c. HeLa S3 cell pellets were resuspended in hypotonic buffer (10 mM HEPES pH 7.9, 1.5 mM MgCl2, 10 mM KCl, 0.2 mM PMSF, and 0.5 mM DTT) and the suspension was brought up to a total of 5 packed cell volume (PCV). After centrifugation, the supernatant was discarded, and the cells were brought up to 3 PCV with hypotonic buffer and incubated on ice for 10 minutes. Cells were lysed using a dounce homogenizer and then centrifuged. The supernatant was discarded, and the pellet was resuspended with ½ packed nuclear volume (PNV) of low salt buffer (20 mM HEPES pH 7.9, 1.5 mM MgCl2, 20 mM KCl, 0.2 mM EDTA, 25% glycerol, 0.2 mM PMSF, 0.5 mM DTT), followed by ½ PNV of high salt buffer (same as low salt buffer except 1.4 M KCl was used). The nuclei were gently mixed for 30 minutes before centrifuging. The supernatant (nuclear extract) was then dialyzed into storage buffer (20 mM HEPES pH 7.9, 100 mM KCl, 0.2 mM EDTA, 20% glycerol, 0.2 mM PMSF, 0.5 mM DTT). Protein concentration was determined using NanoDrop 8000 UV-Vis spectrophotometer (ThermoFisher Scientific). • d. In vitro splicing assay (IVS)
All Ad2-derived (Pellizzoni et al., 1998) sequences were cloned into pcDNA3.1(+) vector (Promega) using 5′ EcoRI and 3′ XbaI restriction sites. The plasmids were linearized using XbaI and used as DNA templates in the in vitro transcription reactions. The FtzΔi intron-less plasmid (Luo and Reed, 1999) was linearized using EcoRI. All RNAs were in vitro transcribed and then purified using MEGAScript T7 (Invitrogen) and MegaClear (Invitrogen) kits, respectively. For splicing reactions using Ad2 variant pre-mRNAs, […] reactions were prepared using 8 μg nuclear extracts prepared from HeLa S3, 2 ng pre-mRNA, 0.2 ng FTZΔi, and varying concentrations of exemplary payloads or DMSO. After a 15 minute pre-incubation at 30° C., 1 μL splicing activation buffer (0.5 mM ATP, 20 mM creatine phosphate, 1.6 mM MgCl2) was added, and the reactions were incubated for 90 minutes at 30° C. The reactions were then quenched with 13 μL it DMSO, and 25 nL was used for RT-qPCR. RT-qPCR reactions were prepared using TaqMan RNA-to-CT 1-step kit (Life Technologies), RNA from splicing reactions, Ad2 (forward: […]; reverse: […]; probe: […]) and Ftz (forward: […]; reverse: […]; probe: […]) mRNA primer-probe sets. Prism 6 (Graphpad) was used for non-linear regression curve fitting of the formed spliced product and normalized to the control (DMSO) sample.
Background: Quantitative PCR measures a nucleic acid by following its amplification.

The target in another test is T1, SF3b complexes (Homo sapiens, UniProt O75533+Q7RTV0).
T1 construct: endogenous in cells; host or cells: Nuclear extracts; A HeLa S3 extract preparation is described for the in vitro splicing assay
Put plainly: Scintillation proximity assay (SPA) with [3H]-labelled pladienolide probe. It counts as binding. The following applies: SF3B1 (WT); geometric mean; read-out: SPA-ATS GMean IC50 (nM) SF3B1 (WT). The protocol:
Scintillation Proximity Assay (SPA) with [^3-H]-Labelled Pladienolide Probe
as §1
In general terms: In a scintillation proximity assay essentially only radioactivity close to the scintillant gives light.

For test [2], the system named is NCI-H1568 cells (high MCL1). Put plainly: Cell proliferation and viability, CellTiter-Glo, 72 hours. The format is cell-based. To be noted: for GI50: geometric mean. The method, then: Cell lines were maintained in RPMI-1640 (ATCC 30-2001) supplemented with 10% fetal bovine serum (FBS). The Panc lines were supplemented in addition with insulin and FBS up to 15% total.
Compounds for assay were prepared as stocks in 90% dimethyl sulfoxide (DMSO), assessed for purity by LC/MS, and serially diluted in DMSO using a low-volume liquid handler (VIAFLO ASSIST and VIAFLO II electronic 16-channel pipette, 0.5-12.5 μL) in an 11-point half-log serial dilution to create a master dose response (MDR) source used for all tests.
Transfer of compounds from the MDR source plate to cell assay-ready plates were accomplished directly by low-energy acoustic transfer (ATS100, EDC Biosystems). After transfer of compounds to the assay plate, the dose-response range experienced by cells was typically 10 μM-100 pM (5 logs), and final DMSO concentration in the assay was 0.1%, uniformly. Each assay plate was self-anchored containing vehicle/DMSO negative controls, medium-only/positive controls, and cidal control dose-responses of bortezomib and staurosporine. Assay-ready plates were heat-sealed and stored at −20° C. until used, no longer than one month.
A DMSO-matched time zero (T0) plate was read and then all other plates were incubated at 37° C. with 5% CO2 and 95% relative humidity until the end of assay. Cell proliferation and viability assays were performed 72 hours post-treatment depending on cell growth where at least one doubling would have occurred.
Assessment of viability and proliferation was by measurement of cell ATP content using CellTiter-Glo® Luminescent Cell Viability Assay reagent (Promega) according to the manufacturer's instructions (CellTiter-Glo® Luminescent Cell Viability Assay Technical Bulletin Instructions for Use of Product(s) G7570, G7571, G7572, G7573 Literature #TB288, Revised March 2015), using a microtiter plate reader (Envision, PE).
Cell proliferation was evaluated using the time zero (T0) signal as the positive control and the within-plate vehicle wells (DMSO) as the negative control. Data was converted to percent inhibition and falls into the range from −100% to 100% of growth where −100% equals a cidal response and 100% equals uninhibited or maximal growth. Cell growth at or near 0% is considered a static response.

[3] abbreviates: Ad2.1 pre-mRNA substrate, read-out: qPCR-IVS-ATS GMean IC50 (nM) Ad2.1.
Setting [4] is: Ad2.2 pre-mRNA substrate, read-out: qPCR-IVS-ATS GMean IC50 (nM) Ad2.2.
Where [5] appears, read: NCI-H1568, read-out: CTGlo-ATS GMean GI50 (nM) 72 h NCIH1568.1, NCIH1568.1 cells, 72 h.
[6] abbreviates: NCIH1568.1 cells, 72 h, −100% cidal, 0% static, 100% maximal growth.
Setting [7] is: 72 h, NCIH1568.1, -100% = cidal, 0% = static, 100% = uninhibited growth.
Where [8] appears, read: NCI-H1568, 72 h, read-out: CTGlo-ATS GMean GI50 (nM) 72 h NCIH1568.1, 72 h, NCIH1568.1.

The structures appear in SMILES notation. Where two headings read alike, the source gives them in different places.

Turning to `COCCn1cnc2c(F)cc(/C=C(\C)[C@H]3OC(=O)C[C@H](O)CC[C@H](C)[C@@H](OC(=O)N4CCN(C)CC4)/C=C/[C@@H]3C)cc21` [Compound 142], the IC50 worked out at 12.9 nM in test [1] (setting [3]), 6.99 nM in test [1] (setting [4]) and 1.35 nM on SF3b complexes. Besides, the GI50 in test [2] (setting [5]) is 2.19 nM. In test [2] (setting [6]), the “CTGlo-ATS Mean MinResponse % 72 h NCIH1568.1” value was −69.213%.
For `C/C(=C\c1cc(F)cc(N(C)C2CCN(S(=O)(=O)c3cn(C)cn3)CC2)c1)[C@H]1OC(=O)C[C@H](O)CC[C@H](C)[C@@H](OC(=O)N2CCN(C)CC2)/C=C/[C@@H]1C` [Compound 184] the same measures were 18.1 nM, 11.6 nM, 14.4 nM, 59.8 nM and −85.535%.
For `COc1ccc(-n2nnc3c(F)cc(/C=C(\C)[C@H]4OC(=O)C[C@H](O)CC[C@H](C)[C@@H](OC(=O)N5CCN(C)CC5)/C=C/[C@@H]4C)cc32)cc1` [Compound 165] the same measures were 29.5 nM, 15.2 nM, 18.7 nM, 10 nM and −78.159%.
As for `C/C(=C\c1cc(F)c2nnn(C3CCCCC3)c2c1)[C@H]1OC(=O)C[C@H](O)CC[C@H](C)[C@@H](OC(=O)N2CCN(C)CC2)/C=C/[C@@H]1C` [Compound 164], the IC50 was 20.7 nM in test [1] (setting [3]), 27.9 nM in test [1] (setting [4]) and 3.59 nM on SF3b complexes. Besides, the GI50 in test [2] (setting [5]) stood at 1.54 nM. Besides, the “CTGlo-ATS Mean MinResponse % 72 h NCIH1568.1” value in test [2] (setting [6]) was −87.159%.
Consider `C/C(=C\c1cc(F)cc(N2CCN(C(=O)Cn3cccn3)CC2)c1)[C@H]1OC(=O)C[C@H](O)CC[C@H](C)[C@@H](OC(=O)N2CCN(C3CCCCC3)CC2)/C=C/[C@@H]1C` [Compound 238, [(2S,3S,4E,6R,7S,10R)-2-[(E)-1-[3-fluoro-5-[4-(2-pyrazol-1-ylacetyl)piperazin-1-yl]phenyl]prop-1-en-2-yl]-10-hydroxy-3,7-dimethyl-12-oxo-1-oxacyclododec-4-en-6-yl] 4-cyclohexylpiperazine-1-carboxylate], for which the IC50 in test [1] (setting [3]) turned out to be 32.2 nM; in test [1] (setting [4]), 68.1 nM; on SF3b complexes, 18.1 nM. The “Ratio Ad2.1/2.2” value in test [1] stood at 0.473. In test [2] (setting [7]), the “CTGlo-ATS Mean MinResponse % 72 h NCIH1568.1” value is −88.447%. Besides, in test [2] (setting [8]), the GI50 is 5.79 nM.
For the compound `C/C(=C\c1cc(F)c2nnn([C@@H](C)CO)c2c1)[C@H]1OC(=O)C[C@H](O)CC[C@H](C)[C@@H](OC(=O)N2CCN(C)CC2)/C=C/[C@@H]1C` [Compound 149], the IC50 is 9.13 nM in test [1] (setting [3]), 8.71 nM in test [1] (setting [4]) and 1.86 nM at SF3b complexes. The GI50 in test [2] (setting [5]) turned out to be 1.66 nM. The “CTGlo-ATS Mean MinResponse % 72 h NCIH1568.1” value in test [2] (setting [6]) is recorded as −73.106%.
In the case of `C/C(=C\c1cc(F)cc(N2CCN(C(=O)Cn3cccn3)CC2)c1)[C@H]1OC(=O)C[C@H](O)CC[C@H](C)[C@@H](OC(=O)N(C)C2CCN(C)CC2)/C=C/[C@@H]1C` [Compound 233, [(2S,3S,4E,6R,7S,10R)-2-[(E)-1-[3-fluoro-5-[4-(2-pyrazol-1-ylacetyl)piperazin-1-yl]phenyl]prop-1-en-2-yl]-10-hydroxy-3,7-dimethyl-12-oxo-1-oxacyclododec-4-en-6-yl] N-methyl-N-(1-methylpiperidin-4-yl)carbamate], the values for the IC50 (in test [1] (setting [3]); in test [1] (setting [4]); on SF3b complexes) were 5.87 nM, 6.05 nM and 2.46 nM, respectively. The “Ratio Ad2.1/2.2” value in test [1] was determined as 0.971. Further, in test [2] (setting [7]), the “CTGlo-ATS Mean MinResponse % 72 h NCIH1568.1” value is −87.288%. In addition, the GI50 in test [2] (NCI-H1568, read-out: CTGlo-ATS GMean GI50 (nM) 72 h NCIH1568.1, 72 h, NCIH1568.1) was 1.98 nM.
With `C/C(=C\c1cc(F)cc(N2CCN(CC(=O)O)CC2)c1)[C@H]1OC(=O)C[C@H](O)CC[C@H](C)[C@@H](OC(=O)N2CCNCC2)/C=C/[C@@H]1C` [Compound 264], the results for the IC50 (in test [1] (setting [3]); in test [1] (setting [4]); at SF3b complexes) were 33.4 nM, 72.4 nM and 35.7 nM, respectively. For the same compound, the “Ratio Ad2.1/2.2” value in test [1] is 0.461. The “CTGlo-ATS Mean MinResponse % 72 h NCIH1568.1” value in test [2] (setting [7]) is on record as −21.716%. In addition, the GI50 in test [2] (setting [8]) stood at 143 nM.
On to `C/C(=C\c1cc(F)cc(N2CCN(C(=O)Cn3cccn3)CC2)c1)[C@H]1OC(=O)C[C@H](O)CC[C@H](C)[C@@H](OC(=O)N2CC[C@H](N(C)C)C2)/C=C/[C@@H]1C` [Compound 228, [(2S,3S,4E,6R,7S,10R)-2-[(E)-1-[3-fluoro-5-[4-(2-pyrazol-1-ylacetyl)piperazin-1-yl]phenyl]prop-1-en-2-yl]-10-hydroxy-3,7-dimethyl-12-oxo-1-oxacyclododec-4-en-6-yl] (3S)-3-(dimethylamino)pyrrolidine-1-carboxylate], for which the IC50 on SF3b complexes turned out to be 3.96 nM. Besides, in test [2] (setting [7]), the “CTGlo-ATS Mean MinResponse % 72 h NCIH1568.1” value is listed as −77.633%. Further, in test [2] (setting [8]), the GI50 was found to be 3.29 nM.
As to `C/C(=C\c1cc(F)c2nnn(CC3CCOCC3)c2c1)[C@H]1OC(=O)C[C@H](O)CC[C@H](C)[C@@H](OC(=O)N2CCN(C)CC2)/C=C/[C@@H]1C` [Compound 148], the IC50 on SF3b complexes amounted to 2.24 nM. In addition, the GI50 in test [2] (setting [5]) amounted to 1.42 nM. Besides, the “CTGlo-ATS Mean MinResponse % 72 h NCIH1568.1” value in test [2] (setting [6]) is −85.010%.

The IC50 is the concentration that inhibits the measured activity by half. In general, GI50 refers to the concentration that inhibits growth by half.
